Patent publication US20150216794A1, “METHODS OF TREATING PAIN ASSOCIATED WITH OSTEOARTHRITIS OF A JOINT WITH A TOPICAL FORMULATION OF A SPIRO-OXINDOLE COMPOUND” (IVAX International GmbH, priority 2014, published 2015)
Several values for one entry are separate records, joined by “and”; a condition that tells them apart may be missing. Equal values may be shown once.

Columns and labels:
[1] = minipig repeated dermal dosing: spiro-oxindole compound in plasma (LC-MS/MS); assay type: in vivo, Göttingen minipig; conditions: minipigs
Experimental: The study was carried out on minipigs to obtain information on plasma pharmacokinetics, tissue distribution and accumulation, excretion and metabolic profile of the spiro-oxindole compound after daily dermal administration of a pharmaceutical composition of the invention for 20 consecutive days followed by a single dose of [^14C]-spiro-oxindole compound Day 21.
Midazolam was administered on Days 0 and 20 to 3 male minipigs by bolus intravenous injection at a dose level 0.5 mg/kg.
The [^14C]-spiro-oxindole composition was prepared as follows:
Dosages of test formulations were applied with foil and spread using nitrile gloves to form a thin uniform layer to the treatment site.

[2] = domestic pig joint penetration study: concentration in plasma; assay type: in vivo; conditions: for concentration in plasma, individual animals: 3.0 μL/cm^2 bid
Experimental: (§1) This study was conducted to evaluate the joint penetration, systemic plasma exposure and tissue distribution of the spiro-oxindole compound in domestic pigs following topical administration of a pharmaceutical composition utilized in the methods of the invention. Fifteen female pigs were used in this study with three pigs in each group. Beginning on Day 1, a pharmaceutical composition of the invention was topically applied to the left radiocarpal joint (carpus) and tibiotarsal joint (hock) twice daily (bid) for 17 days (34 applications) for Groups 1-4 and once daily (qd) for 17 days (17 applications) for Group 5. Pre-dose blood samples (prior to morning dosing) was collected on Days 2, 7, 10, 14 and 17. A full pharmacokinetic sampling was performed on Day 17 (post am dosing) at the following time points: 1, 2, 4, 8 and 12 hr. On the day of necropsy, Day 18, blood was collected prior to euthanasia, each pig was humanely euthanized and dorsal skin and muscle, liver, kidney, heart, lung, brain, intestine, fat, ovaries, urinary bladder, sciatic nerve, and skin, muscle, synovial membrane, and synovial fluid from all 4 joints (2 treated, left carpus and hock, and 2 untreated, right carpus and hock) was collected.
(§2) The dose volume (μL/cm^2) for the test pharmaceutical compositions was 3.0 μL/cm^2 for Groups 1, 2, 3 and 5 and 1.0 μL/cm^2 for Group 4.
Approximately 2 mL of whole blood was collected prior to the morning dose administration on Days 2, 7, 10, 14 and 17. A full pharmacokinetic profile sampling was performed on Day 17 after the morning dose administration at the following time points: 1, 2, 4, 8 and 12 hr. On the day of necropsy, Day 18, blood was collected prior to euthanasia.

[3] = minipig: tissue distribution of radioactivity and unchanged compound; assay type: in vivo, Göttingen minipig; conditions: for concentration at 24 h: male, Göttingen, minipig, topical, 70 mg spiro-oxindole compound equivalents ointment/kg
Text: The following tissues/organs were removed from the remaining carcass:
The urinary bladder from each animal was rinsed with saline and the washings discarded. Each section of the gastrointestinal tract wall was washed to remove contents (which were retained for analysis) prior to analysis. Remaining carcasses were discarded.

[4] = domestic pig joint penetration study: concentration in liver tissue; assay type: in vivo
Experimental: as §1, §2
The following tissue samples were collected after euthanasia: • Dorsal skin and muscle (from the mid-back) • Liver—Left Medial Lobe • Kidney—Right • Heart • Lung—Right diaphragmatic lobe • Brain—Right cerebral hemisphere • Intestine—mid-jejunum • Duodenum (10-15 cm length) from all 6 animals in Groups 1 and 2 • Fat • Ovary—Right • Urinary bladder • Sciatic nerve from both legs • Skin, muscle underlying site of administration and synovial membrane of all 4 joints (treated left carpus and hock and untreated right carpus and hock)

[5] = previous topical clinical studies (PHN and EM) overall; conditions: human, in vivo
Experimental: Although not previously studied in patients with osteoarthritis, a topical formulation of the spiro-oxindole compound of the invention has been tested in clinical studies and was well tolerated by patients with postherpetic neuralgia (PHN) and erythromelalgia.
In general, the maximal concentrations of the spiro-oxindole compound following topical application are determined under “maximal use conditions,” taking into consideration such factors as ointment strength, application volume, application surface area, and frequency and duration of dosing.
Nevertheless, the exposure level anticipated in this study is expected to be higher than that observed in any single patient population administered a therapeutic dose a topical pharmaceutical composition of the invention. This study is therefore intended to help in the selection of a topical dose and regimen of a topical pharmaceutical composition of the invention.

- Cmax ([1]; male, Göttingen, minipig, plasma, topical or ocular, 70 mg spiro-oxindole compound equivalents ointment/kg, 21 days repeated dermal dosing, read-out: mean maximum observed concentration [Cmax]): 11.7 ng/mL
- time post dose at which mean plasma concentrations were maximal ([1]; after last dose (Day 21)): 8 h
- apparent steady state achieved ([1]; repeated dermal dosing): between Days 14 and 21
- systemic exposure overall (in words) ([1]; repeated dermal dosing): low systemic exposure
- concentration in plasma, individual animals ([2]; G1 (#1-#3): 2% composition, Day 2 Before dosing): 0.34 ng/mL
- concentration in plasma, individual animals ([2]; G1 (#1-#3): 2% composition, Day 7 Before dosing): 0.97 ng/mL
- concentration in plasma, individual animals ([2]; G1 (#1-#3): 2% composition, Day 10 Before dosing): 1.54 ng/mL
- concentration in plasma, individual animals ([2]; G1 (#1-#3): 2% composition, Day 14 Before dosing): 1.10 ng/mL
- concentration in plasma, individual animals ([2]; G1 (#1-#3): 2% composition, Day 17 1 hour after dosing): 1.21 ng/mL
- concentration in plasma, individual animals ([2]; G1 (#1-#3): 2% composition, Day 17 2 hour after dosing): 1.07 ng/mL
- concentration in plasma, individual animals ([2]; G1 (#1-#3): 2% composition, Day 17 4 hour after dosing): 1.04 ng/mL
- concentration in plasma, individual animals ([2]; G1 (#1-#3): 2% composition, Day 17 8 hour after dosing): 1.30 ng/mL
- concentration in plasma, individual animals ([2]; G1 (#1-#3): 2% composition, Day 17 12 hour after dosing): 11.38 ng/mL
- concentration in plasma, individual animals ([2]; G1 (#1-#3): 2% composition, Day 17 Before dosing): 2.70 ng/mL
- concentration in plasma, individual animals ([2]; G1 (#1-#3): 2% composition, Day 18): 1.60 ng/mL
- concentration in plasma, individual animals ([2]; G2 (#4-#6): 4% composition, Day 2 Before dosing): 0.84 ng/mL and 0.86 ng/mL
- concentration in plasma, individual animals ([2]; G2 (#4-#6): 4% composition, Day 7 Before dosing): 1.73 ng/mL
- concentration in plasma, individual animals ([2]; G2 (#4-#6): 4% composition, Day 10 Before dosing): 1.79 ng/mL
- concentration in plasma, individual animals ([2]; G2 (#4-#6): 4% composition, Day 14 Before dosing): 2.47 ng/mL
- concentration in plasma, individual animals ([2]; G2 (#4-#6): 4% composition, Day 17 1 hour after dosing): 2.47 ng/mL
- concentration in plasma, individual animals ([2]; G2 (#4-#6): 4% composition, Day 17 2 hour after dosing): 3.47 ng/mL
- concentration in plasma, individual animals ([2]; G2 (#4-#6): 4% composition, Day 17 4 hour after dosing): 2.72 ng/mL
- concentration in plasma, individual animals ([2]; G2 (#4-#6): 4% composition, Day 17 8 hour after dosing): 1.94 ng/mL
- concentration in plasma, individual animals ([2]; G2 (#4-#6): 4% composition, Day 17 12 hour after dosing): 12.17 ng/mL and 15.72 ng/mL
- concentration in plasma, individual animals ([2]; G2 (#4-#6): 4% composition, Day 17 Before dosing): 3.25 ng/mL
- concentration in plasma, individual animals ([2]; G2 (#4-#6): 4% composition, Day 18): 5.41 ng/mL and 2.83 ng/mL
- plasma concentration / systemic exposure (in words) ([2]; domestic pig, topical administration to a joint): nanomolar
- tissue radioactivity concentrations in the majority of tissues analysed ([3]; limit of quantification ca 12-25 ng equivalents spiro-oxindole compound/g): below the limit of quantification
- concentration at 24 h ([3]; heart): 17.5 ng/g
- concentration at 24 h ([3]; liver): 11.3 ng/g
- concentration at 24 h ([3]; skin from the dose site): 1860 ng/g
- concentration at 24 h ([3]; white fat): 53.8 ng/g
- concentration in liver tissue, individual animals ([4]; G1 (#1-#3): 2% composition, 3.0 μL/cm^2 bid 17 days): 17.0 ng/g and 2.2 ng/g and 14.0 ng/g
- concentration in liver tissue, individual animals ([4]; G2 (#4-#6): 4% composition, 3.0 μL/cm^2 bid 17 days): 49.1 ng/g and 29.3 ng/g
- concentration in liver tissue, individual animals ([4]; G3 (#7-#9): 8% composition, 3.0 μL/cm^2 bid 17 days): 47.2 ng/g and 48.2 ng/g and 21.6 ng/g
- concentration in liver tissue, individual animals ([4]; G4 (#10-#12): 8% composition, 1.0 μL/cm^2 bid 17 days): 0.0 ng/g and 39.1 ng/g and 13.0 ng/g
- concentration in liver tissue, individual animals ([4]; G5 (#13-#15): 8% composition, 3.0 μL/cm^2 qd 17 days): 3.6 ng/g and 25.1 ng/g and 0.0 ng/g
- highest observed individual plasma concentration [5]: 14.5 ng/mL
Compound: O=C1N(Cc2ccc(C(F)(F)F)o2)c2ccccc2[C@]12COc1cc3c(cc12)OCO3 [spiro-oxindole compound, (S)-1′-{[5-(trifluoromethyl)furan-2-yl]methyl}spiro[furo[2,3-f][1,3]benzodioxole-7,3′-indol]-2′(1′H)one]
